# Measured values taken from patent US20250002974A1, “PROTECTING FULLY FUNCTIONAL NUCLEOTIDES FROM DEGRADATION” (Illumina, Inc., priority 2023, published 2025).
# Columns and labels:
# [1] = lyophilized ffN cakes with 30 mM cationic additive staged at 60° C. for 3 days, diphosphate by HPLC; assay type: physicochemical; settings: 30 mM additive, 60° C. 3 days
# Description: FIG. 12 provides data showing the percent diphosphate ffC detected via HLPC after staging for 60° C. for 3 days (3D) in the presence of 30 mM imidazolium additive (lyophilized cakes; n=2; CTRL=control sample with no additive).
# FIG. 13 provides data showing the percent diphosphate ffC detected via HLPC after staging for 60° C. for 3 days (3D) in the presence of 30 mM pyridinium additives (lyophilized cakes; n=2; CTRL=control with no additive).
# FIG. 14 provides data showing the percent diphosphate ffC detected via HLPC after staging for 60° C. for 3 days (3D) in the presence of 30 mM quaternary additives (lyophilized cakes; n=2; CTRL=control with no additive).
# The efficacies of the other cationic substrates were also tested. This was performed using lyophilized ffN cake samples that were formulated with and without said additives, and by staging at an arbitrarily selected stress condition of 60° C. for a period of 3 days.
# [2] = ffN stress test with or without 10 mM DADMAC, purity by HPLC peak area percent; assay type: physicochemical
# Description: DADMAC (diallyldimethylammonium chloride): 100 μM ffNs were stressed in the presence of 10 mM DADMAC (FIG. 19) in 15 mM 3-(N-morpholino)propanesulfonic acid (MOPS) buffer and 5× glycine buffer (250 mM glycine pH 9.9, 250 mM NaCl, 5 mM ethylediaminetetraacetic acid (EDTA)). Each type of ffNs were tested: ffA, ffC, ffT, and ffG.
# The samples were staged for 2 days at 40° C. in the glycine buffer, 2 days at 65° C. and 7 days at 4° C. in the MOPS buffer. DADMAC was tested to see if it could be added to the incorporation mix or ffN mixtures without causing any negative interactions with ffNs.
# [3] = ffNs stored with TBMACL for 35 days at 35° C. or 45° C., diphosphate production; assay type: physicochemical
# Description: TBMACL was tested to determine if it provided protection to the triphosphate of ffNs as heat stress increased. ffNs were stored with TBMACL for 35 days. In one of the storage conditions, the temperature was 35° C. and in the other storage condition, the temperature was 45° C. […] At 35° C. for 35 days TBMACL caused a 10% reduction in diphosphate production. This can be compared to 45° C. for 35 days where TBMACL caused a 17% reduction in diphosphate production.
# Arthrobacter russicus = experiment: bacterial growth in incorporation mix with TBMACL titration, plating for CFU/ml; assay type: cell-based
# Description: To confirm the biocidal effect of TBMACl within liquid sequencing reagents, a titration of TBMACL from 9 mM to 90 mM in incorporation mix was prepared. These experiments were carried out with the omission of polymerase and ffNs in the formulation, as they were not required for the further analysis. On day 0, samples were inoculated with 3×10^6 CFU/ml of the bacteria Arthrobacter russicus. The samples were staged at 12° C. for 0, 14 and 30 days, followed by plating to determine CFU/ml. FIGS. 26-27 provide data showing use of a bulky cationic compound to inhibit bacterial growth. More specifically, FIG. 26 illustrates A. russicus growth in a titration of TBMACL over 30 days at 12° C.; the data shown is on a linear Y axis. FIG. 27 illustrates the same data, with a logarithmic scale Y axis. It may be understood from FIGS. 26-27 that the greater the concentration of TBMACL, the greater the inhibition of bacterial growth. […] In the absence of TBMACL, the CFU/ml increase by about 1.8-fold over 30 days. […] The sample with 90 mM TBMACL appeared to kill essentially all bacteria by day 14, and all bacteria appeared to remain dead at day 30.
# [4] = stability of ffNs in dry state (TBMACL) or liquid state (CHAPS); assay type: physicochemical
# Text: FIG. 24 provides data showing that addition of the cationic compound Tributylmethylammonium chloride (TBMACL) to ffNs in a dry state increases stability of triphosphate on the ffNs.
# FIG. 25 provides data showing that the addition of CHAPS as well as CHAPS and TBMACL to ffNs in a liquid state increases the stability of intact ffNs.
# [5] = 1 to 40 mM TBACL; 45° C. 7 days; solution format
# Description: As such, even higher concentrations of cations were not pursued.
# [6] = ffNs stored with CHAPS at 45° C. for 7 or 21 days, percent peak area retention; assay type: physicochemical
# Description: CHAPS was tested to determine if it prevented degradation of ffNs as the level of heat stress increased. In one of the reaction conditions ffNs were stored with CHAPS for 7 days at 45° C., and the other reaction condition ffNs were stored with CHAPs for 21 days at 45° C.
# [7] = ffN stability staged with surfactants in solution, 45° C. 7 days; assay type: physicochemical; settings: 45° C. for 7 days, solution format
# Description: Each of the surfactants was tested at two different concentrations, 0.5% and 2%.
smiles,measurement,setting,value
"Cl.N [ACL, ammonium chloride]",effect on triphosphate stability / diphosphate formation,[1],higher level of diphosphate formation
"C=CC[N+](C)(C)CC=C.[Cl-] [DADMAC, diallyldimethylammonium chloride]",effect of DADMAC on ffN purity and diphosphate,"[2]; high temperatures, all 4 ffNs",higher % ffN purity as compared to control and lower levels of diphosphate
same,effect of DADMAC on ffNs,[2]; milder stress conditions,no negative effect
"CCCC[N+](C)(CCCC)CCCC.[Cl-] [TBMACL, tributylmethylammonium chloride]",reduction in diphosphate production,[3]; 35° C. for 35 days,10%
same,reduction in diphosphate production,[3]; 45° C. for 35 days,17%
same,effect on bioburden load (CFU/ml),"Arthrobacter russicus; 9 mM TBMACL, 30 days at 12° C.",approximately static effect
same,reduction of CFU/ml,"Arthrobacter russicus; 22.5 mM TBMACL, 30 days at 12° C.",6 fold
same,reduction of CFU/ml,"Arthrobacter russicus; 45 mM TBMACL, 30 days at 12° C.",8.6 fold
same,reduction of CFU/ml,"Arthrobacter russicus; 90 mM TBMACL, 30 days at 12° C.","about 78,000 fold"
same,biocidal effect on bacterial growth,Arthrobacter russicus; titration 9 mM to 90 mM in incorporation mix,dose-dependent biocidal effect
same,reduction in diphosphate ffN formed vs control without additive,[1],≤ 23%
same,stability of triphosphate species of ffNs,[4]; ffNs in a dry state,increased stability of the trisphosphate species
"CCCC[N+](CCCC)(CCCC)CCCC.[Cl-] [TBACL, tetrabutylammonium chloride]",dephosphorylation (percent diphosphate ffC),[5],reduced dephosphorylation
"CCCC[n+]1ccccc1.[Br-] [BPB, 1-butylpyridinium bromide]",reduction in diphosphate ffN formed vs control without additive,[1],approximately 17%
"CC[n+]1ccc(C(=O)OC)cc1.[I-] [EMPI, 1-ethyl-4-(methoxycarbonyl)pyridinium iodide]",effect on triphosphate stability / diphosphate formation,[1],negatively impacted triphosphate stability
"C[C@H](CCC(=O)NCCC[N+](C)(C)CCCS(=O)(=O)[O-])[C@H]1CC[C@H]2[C@@H]3[C@H](O)C[C@@H]4C[C@H](O)CC[C@]4(C)[C@H]3C[C@H](O)[C@]12C [CHAPS, 3-[(3-cholamidopropyl)dimethylammonio]-1-propanesulfonate]",improvement in percent peak area retention,[6]; 7 days at 45° C.,27%
same,improvement in percent PA retention,[6]; 21 days at 45° C.,113%
same,increase in ffN retention against the control sample,[7],~40%
same,stability of triphosphate species of ffNs,[4]; ffNs in a liquid state,increased the stability of trisphosphate species
